{"source": "patent US7608415B2", "about": "“Analysis of intracellular modifications” (Discoverx Corporation, priority 2004, dated 2009)", "system": "IκB-PL", "experiment": "Homogenous EFC assay of lysates of HeLa/IκB-PL stable cell line stimulated with TNF-α", "type": "cell-based", "conditions": "increasing time periods", "from_the_text": "The second experimental example illustrates the sensitivity of the EAstern blot method by following the regulated degradation of a PL-tagged cellular protein, IκB-PL. […] Stimulation of cells with cytokines, such as TNF-α, activates a pathway that leads to phosphorylation, ubiquitination, and subsequent degradation of IκB, which in turn leads to the release and activation of NF-κB. The regulated degradation of IκB is thus an indicator for NF-κB pathway activation.\nCell lysate samples for EAstern blot analysis were prepared from a HeLa/IκB-PL stable cell line (WO 03/021265, filed Aug. 27, 2002) that was cultured and stimulated with TNF-α for increasing time periods. […] Another fraction of each was used for gel electrophoresis and transfer to PVDF blots as described above. To detect IκB-PL, the EAstern blot protocol was adapted for use with the chemiluminescent substrate Beta-Glo (Promega Corp., Cat. No. E4720). In particular, after incubating with EA Reagent, the blot was incubated at RT for 10 min in a solution of Beta-Glo:EACB (1:1, v/v), sandwiched between clear plastic sheets, and then its luminescence detected with a CCD camera."}
{"substance": "TNF-α", "values": [{"measurement": "IκB-PL EFC signal after TNF-α stimulation", "value": "time-dependent degradation of IκB-PL signal"}]}
